Data reported in ChEMBL document CHEMBL1151384, “The Alkaloids of Thalictrum foliolosum” (J Nat Prod, 1982).
Calls of active or inactive are those of the source.

Experiments:
Type in all cases: functional, organism-based
Sporothrix schenckii = assay: Antifungal activity against Sporotrichum schenckii
Enterococcus faecalis = assay: Antibacterial activity against Streptococcus faecalis
Klebsiella pneumoniae = assay: Antibacterial activity against Klebsiella pneumoniae
Pseudomonas aeruginosa = assay: Antibacterial activity against Pseudomonas aeruginosa
Cryptococcus neoformans = assay: Antifungal activity against Cryptococcus neoformans
Staphylococcus aureus = assay: Antibacterial activity against Staphylococcus aureus
[1] = system: Trichophyton mentagrophytes; assay: Antifungal activity against Trichophyton mentagrophytes
Aspergillus fumigatus = assay: Antifungal activity against Aspergillus fumigatus
Escherichia coli = assay: Antibacterial activity against Escherichia coli
Candida albicans = assay: Antifungal activity against Candida albicans

Measured: Activity

COc1ccc2c(c1)-c1c(OC)c(OC)cc3c1[C@H](C2)N(C)CC3
inactive: all assays above

COc1ccc2cc1Oc1ccc(cc1)C[C@H]1c3cc(OC)c(OC)c(c3CCN1C)Oc1c(O)c(OC)cc3c1[C@H](C2)N(C)CC3
inactive: all assays above

COc1cc(C[C@H]2c3cc(OC)c(OC)cc3CCN2C)c(Oc2cc3c(cc2OC)-c2c(OC)c(OC)cc4c2[C@H](C3)N(C)CC4)cc1OC
inactive: all assays above

COc1ccc2cc1Oc1ccc(cc1)C[C@H]1c3cc(OC)c(OC)c(c3CCN1C)Oc1c(OC)c(OC)cc3c1[C@H](C2)N(C)CC3
inactive: all assays above
